Laboratory results from patent US8492103B2 (priority 2011, dated 2013).
“Also recorded” adds a separate entry of the source. Like-named read-outs stand apart in the source and are kept apart here.

How the values were obtained:
[1] = test system: antibodies from dogs infected with E. chaffeensis; assay type: binding; conditions: ELISA, dog sera
[2] = test system: antibodies from dogs infected with E. canis; assay type: binding; conditions: ELISA, dog sera
[3] = test system: Ehrlichia antibody from dogs infected with E. ewingii; assay type: binding; conditions: ELISA; dog sera
[4] = test system: Ehrlichia antibody in human serum; assay type: binding; conditions: ELISA; humans infected with E. chaffeensis
Description: ELISA plates (Nunc, Maxisorp) were coated with P28-1 and incubated with sera of humans (infected with E. chaffeensis) (1:100) (1 hour-RT) followed by incubation with goat anti-human AP (1:1500).

[5] = test system: antibodies from mice infected with Rickettsia; assay type: binding; conditions: ELISA; R. conorii, R. australis, R. akari
[6] = test system: antibodies from mice infected with Orientia; assay type: binding; conditions: ELISA; O. tsutsugamushi
[7] = test system: E. muris; assay: Immunization and Ehrlichia muris challenge, ehrlichial load by quantitative real-time PCR; assay type: in vivo, C57BL/6 mice; conditions: for protection against E. muris challenge as determined by bacterial load (quantitative real time-PCR): immunized mice; for bacterial load in vaccinated mice compared to unvaccinated controls: spleen and liver, days 7 and 14 after bacterial infection; for protection against Ehrlichia infection (overall statement): vaccinated mice challenged with E. muris
Description: Since the P28-1955-75 and Ehrlichia Hsp6043-63 epitope peptides induced antibodies, the inventors reasoned that they also could provide protection against Ehrlichia thereby functioning as potential vaccine candidates. […] The spleen and liver were collected at different days after bacterial challenge and the bacterial copy number determined by quantitative real time PCR.
(§1) Mice were immunized i.p., with two doses of 50 micrograms (0.02 μM) of each P28-1955-75 peptide or Ehrlichia Hsp6043-63 peptides conjugated to KLH 15 days apart (the first immunization with complete Freund's adjuvant and the second immunization with incomplete Freund's adjuvant) (3 mice per group). Thirty days after the first immunization mice were challenged intraperitoneally (i.p.) with a high dose of E. muris (˜1×10^4 bacterial genomes) and observed daily. Controls included unchallenged naive mice as well as unvaccinated mice injected with E. muris alone. Mice were sacrificed on days 7, 14 and 21 after Ehrlichia challenge, and spleen and liver were harvested and sera collected. The ehrlichial load in spleen and liver was determined by quantitative RT-PCR. Sera were assayed for determination of antibody titers.
The bacterial burdens in the organs were determined by quantitative real-time PCR. The Ehrlichia-specific dsb gene, which encodes a disulfide bond-forming protein (GenBank accession #AY236484 and AY236485), was selected as the target gene for amplification of E. muris. The sequences of the primers and probes and thermal cycle conditions were described previously (Stevenson et al. (2006) Infect Immun 74:4856-4864). PCR analyses were considered negative for ehrlichial DNA if the critical threshold values (Ct) exceeded 40 cycles. Expression of the ehrlichial load was normalized relative to the total DNA. Each sample was run in duplicate.

[8] = test system: Ehrlichia-specific IgG antibody; assay: Antibody response by ELISA in vaccinated mice after E. muris challenge; assay type: in vivo, C57BL/6 mice; conditions: for antibody levels in vaccinated mice, day 14 compared to day 7: after E. muris challenge; for IgG antibody response after E. muris challenge, vaccinated compared to unvaccinated E. muris-infected mice: blood on days 7 and 14
Description: ELISA plates (Nunc, Maxisorp) were coated with P28-1 and incubated with sera of mice (1:100) vaccinated with Ehrlichia Hsp60 and challenged with E. muris. Following incubation with mice sera they were incubated with goat anti-mouse AP (1:500).
Immunization with vaccines stimulates the immune system to produce a robust antibody response that can provide protection against pathogens. To determine the antibody responses against the Ehrlichia Hsp6043-63 peptide vaccine, blood was collected from vaccinated mice on days 7 and 14 and performed ELISA. […] However, there was no difference between the antibody levels in vaccinated mice between days 7 and 14. The Ehrlichia Hsp6043-63-specific antibody levels in infected unvaccinated mice were highest on day 14 compared to day 7 (FIG. 6A). To determine the antibody responses against the P28-1955-75 peptide vaccine, we collected blood from immunized mice on days 7 and 14 and subjected the samples to ELISA.
as §1

[9] = test system: antibody isotypes IgG1, IgG2c, IgG2b, IgG3, IgM; assay: Measurement of antibody subclasses (isotypes) by ELISA in vaccinated mice after challenge; assay type: in vivo, C57BL/6 mice; conditions: day 14 post challenge
Description: as §1
ELISA was performed to measure the concentration of E. muris specific IgG subclass antibodies as described previously [Ismail et al. (2004) J Immunol 172:1786-1800; McBride et al. (2003) Infect Immun 71: 2516-2524). Briefly, the ELISA plates were coated with 50 μl of peptide (Ehrlichia Hsp6043-63) or recombinant P28-19 protein at a concentration of 4 μg/ml in PBS. Serum samples were diluted 1:100, and 100 μl of each sample was added to peptide-coated wells and incubated at 25° C. for 1 h. […] When peptides conjugated to KLH were used as a probe in ELISA, KLH was used as control and the results subtracted from positive values.

[10] = test system: IFN-γ-producing CD4+ T cells in the spleen; assay: Flow cytometry of peptide-specific IFN-γ-producing memory CD4+ T cells in splenocytes of E. muris-infected mice; assay type: cell-based; conditions: day 45 after infection; splenocytes stimulated in vitro with the peptide for 18 h
Description: Flow cytometry was used to determine if Ehrlichia Hsp6043-63 and P28-19 specific memory T cells are induced during E. muris infection.
The frequencies of antigen specific IFN-γ-producing T cells in the spleens were determined by flow cytometric analysis. […]
After blocking Fc receptors with anti-Fc receptor mAbs (BD PharMingen, San Diego, Calif.) in FACS buffer (Dulbecco's PBS without Mg^2+ or Ca^2+ containing 1% fetal calf serum and 0.09% sodium azide) at 4° C. for 15 minutes, cells were labeled with fluorochrome-conjugated mAbs (BD Biosciences Pharmingen, San Diego, Calif.) specific for mouse CD3 (APC; clone 17A2), and CD4 (FITC; clone RM4-5), and CD8 (PerCP-Cy 5.5; clone 53-6.7). […] Data were analyzed using FCS Express software (De Novo Software, Los Angeles, Calif.). Dot plots were gated on CD3+ T cells and the frequencies and absolute numbers of antigen-specific IFN-γ-producing CD4+ T cells in the spleens were determined after subtracting the background staining of unstimulated cells in wells containing medium only.

Row | Substance | reaction with / detection of antibodies from dogs infected with E. chaffeensis [1] | reaction with / detection of antibodies from dogs infected with E. chaffeensis ([1]; listed as P28 peptide) | reaction with / detection of antibodies from dogs infected with E. canis [2] | reaction with / detection of antibodies from dogs infected with E. canis ([2]; listed as P28 peptide) | detection of Ehrlichia antibodies of dogs infected with E. ewingii [3] | detection of Ehrlichia antibody in human serum [4] | cross-reaction with antibodies from mice infected with Rickettsia [5] | cross-reaction with antibodies from mice infected with Orientia [6] | protection against E. muris challenge as determined by bacterial load (quantitative real time-PCR) ([7]; days 7 and 14 after E. muris challenge) | bacterial load in vaccinated mice compared to unvaccinated controls [7] | protection against Ehrlichia infection (overall statement) [7] | antibody levels in vaccinated mice, day 14 compared to day 7 [8] | IgG antibody response after E. muris challenge, vaccinated compared to unvaccinated E. muris-infected mice [8] | antibody isotype levels in vaccinated compared to unvaccinated mice after bacterial challenge [9] | antibody isotype levels in vaccinated compared to unvaccinated mice after bacterial challenge ([9]; listed as P28-1955-75) | peptide-specific IFN-γ-producing CD4+ T cells in spleen of E. muris-infected mice compared to naive uninfected mice [10] | protection against E. muris challenge as determined by bacterial load (quantitative real time-PCR) ([7]; day 14 after E. muris challenge) | antibody isotype levels in vaccinated compared to unvaccinated mice after bacterial challenge ([9]; listed as Ehrlichia Hsp6043-63)
1 | akeeknataktfglkq (AKEEKNATAKTFGLKQ; listed as Ehrlichia muris) [P28-1955-75 peptide, peptide of E. muris outer membrane protein P28-19, amino acids 55-75] | reacted | very sensitive | reacted | very sensitive | very sensitive | sensitive | did not react | did not react | protected | lower bacterial load | provided protection | higher on day 14 | higher IgG antibody levels | higher levels of IgG1, IgG2b, IgG2c, and IgG3 | higher levels of IgG1, IgG2b, IgG3 and IgM | significantly higher frequencies and absolute numbers; also recorded: higher frequency | – | –
2 | ygapeitkdgykviksikped (YGAPEITKDGYKVIKSIKPED; listed as Ehrlichia muris) [Ehrlichia Hsp6043-63 peptide] | reacted | – | reacted | – | – | – | did not react | did not react | – | lower bacterial load | provided protection | no difference | higher IgG antibody levels | higher levels of IgG1, IgG2c, IgG2b, and IgG3 | – | significantly higher frequencies and absolute numbers; also recorded: higher frequency | protected | higher levels of IgG1, IgG2c, IgG2b, IgG3 and IgM
